Data reported in US11253515B2, “Pharmaceutical compositions and dosage forms” (IGNYTA, INC., priority 2017, dated 2022).

Assays:
[1] = Excipient compatibility of 1:1 acid admixtures, HPLC after three months storage; assay type: physicochemical; details: 1:1 weight ratio dry powder mixture, open vial
Description: (§1) The mixtures were prepared in duplicate for each sample, and stored in open top, 4 mL glass vials at (1) 60° C./dry heat and (2) 40° C. and 75% relative humidity (RH).
The HPLC traces analyses were conducted on an Agilent 1100 LC, equipped with Agilent Diode Array Detector and Chemstation Software using the conditions found in the table below.

[2] = Physical state and moisture uptake of 1:1 acid admixtures on storage; assay type: physicochemical; details: 40° C. and 75% RH, open top vial
Description: as §1
All admixture samples and the control samples stored at the 60° C. and dry heat condition remained as dry powders.

[3] = Comparative pharmacokinetic study of F1 and F2 with lansoprazole (Example 12); assay type: in vivo, human; details: 800 mg fixed dose, 23 healthy subjects, body weights 55 to 106 kg
Description: A comparative pharmacokinetic study in healthy, human subjects was conducted comparing a 200 mg dosage strength of pharmaceutical composition F1 (as described in Example 11) with a 200 mg dosage strength pharmaceutical composition F2 (as described in Example 10).
Pharmaceutical compositions F1 and F2, along with and lansoprazole, were administered orally with approximately 240 mL of water, according to the randomization scheme. Lansoprazole was administered as 30 mg lansoprazole delayed-release capsules.
Subjects were randomized into two groups, A and B. Periods 1 and 2 were conducted as a crossover design under fasting conditions where all subjects received F1 and F2. […] A representative summary of Periods 1, 2, and 3 and the pharmaceutical compositions subjects in groups A and B will receive in each Period is found below.
Lansoprazole administration on days 1 to 9 was conducted in the morning, approximately 1.5 hours prior to administration of either F1 or F2 at hour 0 on day 4.
Subjects were randomized and received 3 out of 4 treatments in one of the following sequences: […] (i.e., Periods 1 and 2 were conducted as a crossover design under fasting conditions [Treatments A and B]). […] Each subject received each of the 3 assigned treatments on one occasion.
Treatments A and C utilized 200 mg strength F1 capsules.
Treatments B and D utilized 200 mg F2 capsules. […]

[4] = Single-dose food effect study in dogs; assay type: in vivo; details: formulation that did not comprise at least one acidulant
Excerpt: Such food effects can cause difficulty during human testing of drugs as the fed or fasted condition of the patient can cause exposure or bioavailability of drugs to vary widely.

[5] = human, in vivo
TrkB = TrkB (Homo sapiens, UniProt Q16620); details: background statement; cited from earlier work
TrkC = TrkC (Homo sapiens, UniProt Q16288); details: background statement; cited from earlier work
[6] = target: anaplastic lymphoma kinase (ALK) (Homo sapiens, UniProt Q9UM73); details: background statement; cited from earlier work
[7] = three months at 60° C. Dry Heat

TrkC, sequence (Q16288 32-839): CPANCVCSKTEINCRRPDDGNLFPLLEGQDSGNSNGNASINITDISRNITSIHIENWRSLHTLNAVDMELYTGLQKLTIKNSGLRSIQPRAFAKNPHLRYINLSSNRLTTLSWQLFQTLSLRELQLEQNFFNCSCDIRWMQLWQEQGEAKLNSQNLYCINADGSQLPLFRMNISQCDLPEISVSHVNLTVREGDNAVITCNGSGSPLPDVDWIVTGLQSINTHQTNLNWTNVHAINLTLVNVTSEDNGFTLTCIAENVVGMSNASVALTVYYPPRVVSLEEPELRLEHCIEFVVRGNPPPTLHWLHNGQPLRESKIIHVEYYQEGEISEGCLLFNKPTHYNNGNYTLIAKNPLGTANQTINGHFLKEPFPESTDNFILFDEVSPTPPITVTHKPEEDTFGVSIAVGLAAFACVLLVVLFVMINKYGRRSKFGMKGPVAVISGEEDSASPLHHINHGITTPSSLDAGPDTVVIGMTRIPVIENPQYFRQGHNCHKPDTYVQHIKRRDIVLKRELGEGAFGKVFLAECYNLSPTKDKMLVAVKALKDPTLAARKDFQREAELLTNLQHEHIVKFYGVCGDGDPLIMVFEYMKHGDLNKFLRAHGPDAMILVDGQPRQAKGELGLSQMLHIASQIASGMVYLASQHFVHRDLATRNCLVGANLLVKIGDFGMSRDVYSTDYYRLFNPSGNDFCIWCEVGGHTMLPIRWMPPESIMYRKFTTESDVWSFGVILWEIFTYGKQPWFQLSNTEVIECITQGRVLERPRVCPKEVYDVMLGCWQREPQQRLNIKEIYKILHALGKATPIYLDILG
anaplastic lymphoma kinase (ALK), sequence (Q9UM73 19-1620): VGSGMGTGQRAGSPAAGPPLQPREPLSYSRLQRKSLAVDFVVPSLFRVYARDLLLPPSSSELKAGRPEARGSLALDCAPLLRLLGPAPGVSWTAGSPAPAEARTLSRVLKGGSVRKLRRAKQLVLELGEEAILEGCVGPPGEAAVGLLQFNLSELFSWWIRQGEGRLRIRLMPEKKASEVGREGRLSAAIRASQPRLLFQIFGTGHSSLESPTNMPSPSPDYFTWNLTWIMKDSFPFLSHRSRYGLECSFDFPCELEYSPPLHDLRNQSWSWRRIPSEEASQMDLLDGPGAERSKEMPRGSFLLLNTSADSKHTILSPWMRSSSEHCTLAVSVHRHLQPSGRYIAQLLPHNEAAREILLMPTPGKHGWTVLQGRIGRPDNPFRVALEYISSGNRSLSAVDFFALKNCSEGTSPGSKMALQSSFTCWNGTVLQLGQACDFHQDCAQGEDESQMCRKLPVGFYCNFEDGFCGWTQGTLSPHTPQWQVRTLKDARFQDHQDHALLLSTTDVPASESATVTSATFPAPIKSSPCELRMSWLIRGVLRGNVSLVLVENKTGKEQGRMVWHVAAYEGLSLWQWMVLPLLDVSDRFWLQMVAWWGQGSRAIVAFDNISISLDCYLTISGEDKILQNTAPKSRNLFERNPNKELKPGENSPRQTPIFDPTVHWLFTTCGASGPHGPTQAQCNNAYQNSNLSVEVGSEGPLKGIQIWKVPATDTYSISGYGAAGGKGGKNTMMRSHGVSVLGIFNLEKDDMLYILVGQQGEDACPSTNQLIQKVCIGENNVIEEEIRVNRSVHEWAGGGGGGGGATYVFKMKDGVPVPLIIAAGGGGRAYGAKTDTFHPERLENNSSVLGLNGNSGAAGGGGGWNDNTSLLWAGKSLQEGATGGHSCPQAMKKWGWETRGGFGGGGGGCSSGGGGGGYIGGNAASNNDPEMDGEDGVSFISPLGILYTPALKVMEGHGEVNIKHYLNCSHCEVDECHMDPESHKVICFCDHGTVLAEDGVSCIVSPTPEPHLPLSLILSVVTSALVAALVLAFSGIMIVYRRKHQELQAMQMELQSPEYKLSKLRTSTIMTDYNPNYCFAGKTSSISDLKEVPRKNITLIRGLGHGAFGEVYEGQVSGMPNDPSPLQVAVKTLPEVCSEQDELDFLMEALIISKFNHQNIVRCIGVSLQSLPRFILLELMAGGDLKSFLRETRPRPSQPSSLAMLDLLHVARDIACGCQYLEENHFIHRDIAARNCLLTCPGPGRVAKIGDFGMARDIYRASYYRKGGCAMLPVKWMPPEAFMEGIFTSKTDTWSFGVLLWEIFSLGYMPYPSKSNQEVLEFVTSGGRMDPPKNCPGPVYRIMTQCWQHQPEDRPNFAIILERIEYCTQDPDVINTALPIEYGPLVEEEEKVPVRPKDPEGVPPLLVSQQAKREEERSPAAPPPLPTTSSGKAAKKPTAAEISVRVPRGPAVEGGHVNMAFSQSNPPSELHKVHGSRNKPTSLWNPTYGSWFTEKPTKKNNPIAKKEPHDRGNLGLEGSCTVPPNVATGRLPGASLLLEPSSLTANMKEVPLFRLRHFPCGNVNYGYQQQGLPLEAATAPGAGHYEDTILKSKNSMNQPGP
TrkB, sequence (Q16620 32-822): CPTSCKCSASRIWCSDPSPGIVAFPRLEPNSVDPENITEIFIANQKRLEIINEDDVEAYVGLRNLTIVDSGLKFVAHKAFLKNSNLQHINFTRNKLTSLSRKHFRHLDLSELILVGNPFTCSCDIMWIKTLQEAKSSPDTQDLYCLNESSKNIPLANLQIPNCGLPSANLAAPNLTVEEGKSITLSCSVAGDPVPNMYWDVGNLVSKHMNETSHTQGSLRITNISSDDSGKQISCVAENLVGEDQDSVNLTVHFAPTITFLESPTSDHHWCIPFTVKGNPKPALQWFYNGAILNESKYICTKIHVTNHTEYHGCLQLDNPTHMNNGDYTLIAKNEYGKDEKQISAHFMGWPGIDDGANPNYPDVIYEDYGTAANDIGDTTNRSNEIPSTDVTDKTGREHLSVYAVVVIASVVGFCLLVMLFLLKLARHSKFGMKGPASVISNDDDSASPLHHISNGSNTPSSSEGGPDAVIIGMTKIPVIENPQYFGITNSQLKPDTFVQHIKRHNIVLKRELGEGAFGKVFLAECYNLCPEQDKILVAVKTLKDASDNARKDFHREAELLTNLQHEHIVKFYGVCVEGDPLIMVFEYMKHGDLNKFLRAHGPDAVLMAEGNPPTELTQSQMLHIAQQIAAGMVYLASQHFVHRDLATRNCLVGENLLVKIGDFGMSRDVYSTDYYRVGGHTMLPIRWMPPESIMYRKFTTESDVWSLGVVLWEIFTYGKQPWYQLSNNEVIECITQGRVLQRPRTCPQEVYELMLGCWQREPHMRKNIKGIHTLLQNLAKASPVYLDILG

- % UV Purity ([1]; three months at 40° C./75% RH): 99.2%
- Most abundant impurity (area %) ([1]; three months at 40° C./75% RH, listed as Control): 0.13%
- Most abundant impurity (area %) ([1]; three months at 40° C./75% RH, listed as control): 0.13%
- % UV Purity [1, 7]: 99.3%
- Most abundant impurity (area %) [1, 7]: 0.13%
- physical state after 13 days of storage [2]: remained dry
- exposure levels under fed conditions compared to fasting conditions [4]: approximately 2 fold
- exposures with concomitant proton pump inhibitor drugs (PPIs), such as lansoprazole [5]: variable
- AUC higher when taken with food ([5]; 400 mg/m2): ~50%
- Cmax higher with food ([5]; 400 mg/m2): approximately 150%
SMILES: CN1CCN(c2ccc(C(=O)Nc3n[nH]c4ccc(Cc5cc(F)cc(F)c5)cc34)c(NC3CCOCC3)c2)CC1 [N-[5-(3,5-difluorobenzyl)-1H-indazol-3-yl]-4-(4-methyl-piperazin-1-yl)-2-(tetrahydro-pyran-4-ylamino)-benzamide]
- correlation of total exposure with body weight or body surface area [3]: did not correlate with body weight or body surface area
- inhibition of tyrosine kinase (TrkB): potent inhibitor
- inhibition of tyrosine kinase (TrkC): potent inhibitor
- inhibition of tyrosine kinase [6]: potent inhibitor
